This is an account of results in US9745283B2, “Uracil derivatives as AXL and c-MET kinase inhibitors” (priority 2011, dated 2017).

Assay [1] has as its target recombinant human baculovirus-expressed AXL (Homo sapiens (Human), UniProt P30530). The experiment in a line: AXL Kinase Assay (HTRF KinEASE). It counts as biochemical. The settings on record: average of two or more determinations. The procedure: The ability of compounds to inhibit the kinase activity of recombinant human baculovirus-expressed AXL was measured by homogeneous TRF (HTRF) using Cisbio's KinEASE™ assay system in white 384-well Optiplates. Assay buffer contained 1 mM DTT, 2 mM MnCl2, 2% DMSO, […] supplement enzymatic buffer, and 1× enzymatic buffer. A 2× concentration of tyrosine kinase (TK) substrate-biotin/ATP mixture made in assay buffer was added to plates at 10 μL/well using the Multidrop Combi (Thermo Fisher Scientific, Waltham, Mass.). […] Compounds (100 nL), diluted in 100% DMSO on the Biomek FX, (Beckman Coulter, Inc., Brea, Calif.), were transferred to the assay plates using the Biomek FX pintool (2.5% final DMSO in assay). […] Plates were sealed, briefly shaken and incubated at 25° C. for 30 minutes. […] Plates were sealed, briefly shaken and incubated at 25° C. for 1 hour.
Inhibition curves for compounds were generated by plotting percent control activity versus log 10 of the concentration of compound. IC50 values were calculated by nonlinear regression using the sigmoidal dose-response (variable slope) equation in GraphPad Prism as follows: y=bottom+(top−bottom)/(1+10(log IC50−x)*Hill Slope) where y is the % kinase activity at a given concentration of compound, x is the logarithm of the concentration of compound, bottom is the % of control kinase activity at the highest compound concentration tested, and top is the % of control kinase activity at the lowest compound concentration examined. The values for bottom and top were fixed at 0 and 100, respectively.

For assay [2], the target named is recombinant human baculovirus-expressed cMET (Homo sapiens (Human), UniProt P08581). The experiment in a line: C-MET Kinase Assay (HTRF KinEASE). It counts as biochemical. The settings on record: average of two or more determinations; read-out: c-MET IC50. The method in brief:
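HTRF KinEASE format with recombinant human baculovirus-expressed cMET at 8 ng/mL, biotinylated peptide at 0.1 μM and ATP at 0.02 μM. IC50 came from percent control activity versus log concentration, fitted by nonlinear regression to a variable-slope sigmoidal equation with bottom fixed at 0 and top at 100.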
For orientation: TR-FRET usually uses a lanthanide donor and a delayed reading to cut background.

Usually IC50 stands for the concentration at which inhibition is half-maximal. On to `COc1cc2nccc(Oc3ccc(NC(=O)c4cn(C)c(=O)n(-c5ccc(F)cc5)c4=O)c(F)c3F)c2cc1OC` [Example 146, 1-Methyl-3-(4-fluorophenyl)-2,4-dioxo-1,2,3,4-tetrahydro-pyrimidine-5-carboxylic acid [4-(6,7-dimethoxy-quinolin-4-yloxy)-2,3-difluoro-phenyl]-amide], for which the IC50 in assay [1] and in assay [2] was less than 10 nM throughout.
In the case of `COc1cc2nccc(Oc3ccc(NC(=O)c4cn(C)c(=O)n(-c5ccc(F)cc5)c4=O)c(F)c3)c2cc1OC` [Example 86, 3-(4-Fluoro-phenyl)-1-methyl-2,4-dioxo-1,2,3,4-tetrahydro-pyrimidine-5-carboxylic acid [4-(6,7-dimethoxy-quinolin-4-yloxy)-2-fluoro-phenyl]-amide], the results for the IC50 in assay [1] and in assay [2] were less than 10 nM and 10 to 100 nM, respectively.
Regarding `COc1cc2nccc(Oc3ccc(NC(=O)c4nn(C(C)C)c(=O)n(-c5ccc(F)cc5)c4=O)nc3)c2cc1OC` [Example 110, 4-(4-Fluoro-phenyl)-2-isopropyl-3,5-dioxo-2,3,4,5-tetrahydro-[1,2,4]triazine-6-carboxylic acid [5-(6,7-dimethoxy-quinolin-4-yloxy)-pyridin-2-yl]-amide], the values for the IC50 in assay [1] and in assay [2] were less than 10 nM and 10 to 100 nM, respectively.
Regarding `C=CCn1cc(C(=O)Nc2ccc(Oc3ccnc4cc(OC)c(OC)cc34)c(F)c2)c(=O)n(-c2ccc(F)cc2)c1=O` [Example 9, 1-Allyl-3-(4-fluorophenyl)-2,4-dioxo-1,2,3,4-tetrahydropyrimidine-5-carboxylic acid [4-(6,7-dimethoxyquinolin-4-yloxy)-3-fluorophenyl]-amide], the IC50 in assay [1] and in assay [2] was less than 10 nM throughout.
As to `COCCCn1cc(C(=O)Nc2ccc(Oc3ccnc4cc(OC)c(OC)cc34)c(F)c2)c(=O)n(-c2ccc(F)cc2)c1=O` [Example 7, 3-(4-Fluorophenyl)-1-(3-methoxypropyl)-2,4-dioxo-1,2,3,4-tetrahydropyrimidine-5-carboxylic acid [4-(6,7-dimethoxyquinolin-4-yloxy)-3-fluorophenyl]-amide], the IC50 is less than 10 nM in assay [1] and 10 to 100 nM in assay [2].
On to `COc1cc2nccc(Oc3ccc(NC(=O)c4cn(CCc5ccccc5)c(=O)n(-c5ccc(F)cc5)c4=O)cc3F)c2cc1OC` [Example 64, 3-(4-Fluoro-phenyl)-2,4-dioxo-1-phenethyl-1,2,3,4-tetrahydro-pyrimidine-5-carboxylic acid [4-(6,7-dimethoxy-quinolin-4-yloxy)-3-fluoro-phenyl]-amide], for which the results for the IC50 in assay [1] and in assay [2] were less than 10 nM and 10 to 100 nM, respectively.
In the case of `COc1cc2nccc(Oc3ccc(NC(=O)c4cn(CCN(C)C)c(=O)n(-c5ccc(F)cc5)c4=O)cc3F)c2cc1OC` [Example 20, 1-(2-Dimethylaminoethyl)-3-(4-fluorophenyl)-2,4-dioxo-1,2,3,4-tetrahydropyrimidine-5-carboxylic acid [4-(6,7-dimethoxyquinolin-4-yloxy)-3-fluorophenyl]-amide], the IC50 in assay [1] is less than 10 nM; in assay [2] it was 10 to 100 nM.
Regarding `CCn1cc(C(=O)Nc2ccc(Oc3ccnc4cc(OC)c(OC)cc34)c(F)c2F)c(=O)n(-c2ccc(F)cc2)c1=O` [Example 147, 1-Ethyl-3-(4-fluoro-phenyl)-2,4-dioxo-1,2,3,4-tetrahydro-pyrimidine-5-carboxylic acid [4-(6,7-dimethoxy-quinolin-4-yloxy)-2,3-difluoro-phenyl]-amide], the IC50 in assay [1] and in assay [2] was less than 10 nM in each case.
As for `COc1cc2nccc(Oc3ccc(NC(=O)c4cn(CC5CCOCC5)c(=O)n(-c5ccc(F)cc5)c4=O)cc3F)c2cc1OC` [Example 74, 3-(4-Fluoro-phenyl)-2,4-dioxo-1-(tetrahydro-pyran-4-ylmethyl)-1,2,3,4-tetrahydro-pyrimidine-5-carboxylic acid [4-(6,7-dimethoxy-quinolin-4-yloxy)-3-fluoro-phenyl]-amide], the IC50 in assay [1] was less than 10 nM; in assay [2], 10 to 100 nM.
Take `COc1cc2nccc(Oc3ccc(NC(=O)c4nn(C)c(=O)n(-c5ccc(F)cc5)c4=O)cc3F)c2cc1OC` [Example 104, 4-(4-Fluorophenyl)-2-methyl-3,5-dioxo-2,3,4,5-tetrahydro-[1,2,4]triazine-6-carboxylic acid [4-(6,7-dimethoxy-quinolin-4-yloxy)-3-fluoro-phenyl]-amide]: the IC50 in assay [1] and in assay [2] was less than 10 nM each time.
On to `COc1cc2nccc(Oc3ccc(NC(=O)c4cn(CC5CCCO5)c(=O)n(-c5ccc(F)cc5)c4=O)cc3F)c2cc1OC` (stereo not shown) [Example 73, 3-(4-Fluoro-phenyl)-2,4-dioxo-1-(tetrahydro-furan-2-ylmethyl)-1,2,3,4-tetrahydro-pyrimidine-5-carboxylic acid [4-(6,7-dimethoxy-quinolin-4-yloxy)-3-fluoro-phenyl]-amide], for which the figures for the IC50 in assay [1] and in assay [2] were less than 10 nM and 10 to 100 nM, respectively.
`CCn1cc(C(=O)Nc2ccc(Oc3ccnc4cc(OC)c(OC)cc34)c(C(F)(F)F)c2)c(=O)n(-c2ccc(F)cc2)c1=O` [Example 159, 1-Ethyl-3-(4-fluoro-phenyl)-2,4-dioxo-1,2,3,4-tetrahydro-pyrimidine-5-carboxylic acid [4-(6,7-dimethoxy-quinolin-4-yloxy)-3-trifluoromethyl-phenyl]-amide]: the IC50 was less than 10 nM in assay [1] and 10 to 100 nM in assay [2].
In the case of `CCn1cc(C(=O)Nc2ccc(Oc3ccnc4cc(OC)c(OC)cc34)cc2F)c(=O)n(-c2ccc(F)cc2)c1=O` [Example 87, 1-Ethyl-3-(4-fluoro-phenyl)-2,4-dioxo-1,2,3,4-tetrahydro-pyrimidine-5-carboxylic acid [4-(6,7-dimethoxy-quinolin-4-yloxy)-2-fluoro-phenyl]-amide], the IC50 in assay [1] was less than 10 nM; in assay [2] it was 10 to 100 nM.
`COc1cc2nccc(Oc3ccc(NC(=O)c4cn(CC(=O)N5CCOCC5)c(=O)n(-c5ccc(F)cc5)c4=O)cc3F)c2cc1OC` [Example 67, 3-(4-Fluoro-phenyl)-1-(2-morpholin-4-yl-2-oxo-ethyl)-2,4-dioxo-1,2,3,4-tetrahydro-pyrimidine-5-carboxylic acid [4-(6,7-dimethoxy-quinolin-4-yloxy)-3-fluoro-phenyl]-amide]: the IC50 is less than 10 nM in assay [1] and 10 to 100 nM in assay [2].
In the case of `COc1cc2nccc(Oc3ccc(NC(=O)c4cn(CCn5cccn5)c(=O)n(-c5ccc(F)cc5)c4=O)cc3F)c2cc1OC` [Example 63, 3-(4-Fluoro-phenyl)-2,4-dioxo-1-(2-pyrazol-1-yl-ethyl)-1,2,3,4-tetrahydro-pyrimidine-5-carboxylic acid [4-(6,7-dimethoxy-quinolin-4-yloxy)-3-fluoro-phenyl]-amide], the IC50 in assay [1] and in assay [2] was less than 10 nM each time.
For the molecule `CCC(C)Cn1c(=O)c(C(=O)Nc2ccc(Oc3ccnc4cc(OC)c(OC)cc34)c(F)c2)nn(C)c1=O` (racemic) [Example 130, ±2-Methyl-4-(2-methyl-butyl)-3,5-dioxo-2,3,4,5-tetrahydro-[1,2,4]triazine-6-carboxylic acid [4-(6,7-dimethoxy-quinolin-4-yloxy)-3-fluoro-phenyl]-amide], the IC50 in assay [1] is less than 10 nM; in assay [2], 10 to 100 nM.
As for `COc1cc2nccc(Oc3ccc(NC(=O)c4cn(CCCO)c(=O)n(-c5ccc(F)cc5)c4=O)cc3)c2cc1OC` [Example 52, 3-(4-Fluorophenyl)-1-(3-hydroxypropyl)-2,4-dioxo-1,2,3,4-tetrahydropyrimidine-5-carboxylic acid [4-(6,7-dimethoxyquinolin-4-yloxy)phenyl]-amide], the IC50 in assay [1] was less than 10 nM; in assay [2] it was 10 to 100 nM.
In the case of `CCn1cc(C(=O)Nc2ccc(Oc3ccnc4cc(OC)c(OC)cc34)c(OC)c2)c(=O)n(-c2ccc(F)cc2)c1=O` [Example 151, 1-Ethyl-3-(4-fluoro-phenyl)-2,4-dioxo-1,2,3,4-tetrahydro-pyrimidine-5-carboxylic acid [4-(6,7-dimethoxy-quinolin-4-yloxy)-3-methoxy-phenyl]-amide], the values for the IC50 in assay [1] and in assay [2] were less than 10 nM and 10 to 100 nM, respectively.
Take `COc1cc2nccc(Oc3ccc(NC(=O)c4cn(CC5CC5)c(=O)n(-c5ccc(F)cc5)c4=O)cc3F)c2cc1OC` [Example 6, 1-Cyclopropylmethyl-3-(4-fluorophenyl)-2,4-dioxo-1,2,3,4-tetrahydropyrimidine-5-carboxylic acid [4-(6,7-dimethoxyquinolin-4-yloxy)-3-fluorophenyl]-amide]: the IC50 in assay [1] and in assay [2] was less than 10 nM throughout.
For `C=CCn1cc(C(=O)Nc2ccc(Oc3ccnc4cc(OC)c(OC)cc34)cc2F)c(=O)n(-c2ccc(F)cc2)c1=O` [Example 88, 1-Allyl-3-(4-fluoro-phenyl)-2,4-dioxo-1,2,3,4-tetrahydro-pyrimidine-5-carboxylic acid [4-(6,7-dimethoxy-quinolin-4-yloxy)-2-fluoro-phenyl]-amide], the IC50 in assay [1] was less than 10 nM; in assay [2] it was 10 to 100 nM.
